Holding throughout (type): functional
One assay relates to Staphylococcus aureus. Put plainly: Antibacterial activity against Staphylococcus aureus 209P assessed as reduction in microbial growth after 1 day by two-fold dilution method. The note with it: 24 h.
The next assay has as its system Candida albicans. Put plainly: Antifungal activity against Candida albicans ATCC96901 assessed as reduction in microbial growth after 2 to 3 days by two-fold dilution method. Conditions: time day 2-3.
The next assay relates to Escherichia coli. Briefly: Antibacterial activity against Escherichia coli assessed as reduction in microbial growth after 1 day by two-fold dilution method. The note with it: 24 h.
The next assay has as its system Cryptococcus neoformans. Put plainly: Antifungal activity against Cryptococcus neoformans assessed as reduction in microbial growth after 2 to 3 days by two-fold dilution method. The note with it: time day 2-3.

Structures are written as SMILES.

As for `C/C=C/C[C@H](C)C[C@@]1(C)Oc2c(-c3ccc(O)cc3)c[nH]c(=O)c2[C@H]1O`, the minimal inhibitory concentration (MIC) in the assay on Staphylococcus aureus, in the assay with Candida albicans and in the assay on Escherichia coli was > 100 µM in each case.

For the compound `C[C@H]1C[C@@H]2[C@H](c3c(c(-c4ccc(O)cc4)c[nH]c3=O)O[C@@H]2C)[C@@H](C)C1`, the MIC is 6.25 µM with Cryptococcus neoformans, > 100 µM with Staphylococcus aureus, > 100 µM in the assay with Candida albicans and > 100 µM with Escherichia coli.

Regarding `C[C@H]1[C@H](O)[C@@H](C)C[C@@H]2[C@@H]1c1c(c(-c3ccc(O)cc3)c[nH]c1=O)O[C@H]2C`, the MIC in the assay on Cryptococcus neoformans, with Staphylococcus aureus, with Candida albicans and in the assay on Escherichia coli was > 100 µM throughout.

`C/C=C/C[C@H](C)C[C@]1(C)Oc2c(-c3ccc(O)cc3)c[nH]c(=O)c2[C@@H]1O`: the MIC in the assay on Staphylococcus aureus, in the assay with Candida albicans and with Escherichia coli was > 100 µM each time.

For the compound `C/C=C/C[C@H](C)C[C@H](C)C(=O)C1=C(O)[C@H]([C@@H](O)c2ccc(O)cc2)NC1=O`, the MIC is 25 µM with Cryptococcus neoformans, > 100 µM with Staphylococcus aureus, > 100 µM in the assay on Candida albicans and > 100 µM in the assay on Escherichia coli.

Turning to `C/C=C/C[C@H](C)C[C@H](C)C(=O)c1c(O)cc[nH]c1=O`, the MIC in the assay with Cryptococcus neoformans, with Staphylococcus aureus, with Candida albicans and with Escherichia coli was > 100 µM in each case.

Consider `C/C=C/C[C@H](C)C[C@H](C)C(=O)C1=C(O)/C(=C/c2ccc(O)cc2)NC1=O`, for which the MIC in the assay with Cryptococcus neoformans, in the assay on Staphylococcus aureus, in the assay on Candida albicans and in the assay with Escherichia coli was > 100 µM each time.

In the case of `C/C=C/C[C@H](C)C[C@H](C)C(=O)c1c(O)c(-c2ccc(O)cc2)c[nH]c1=O`, the MIC in the assay with Cryptococcus neoformans is 6.25 µM; with Staphylococcus aureus, > 100 µM; with Candida albicans it was > 100 µM; in the assay with Escherichia coli, > 100 µM.

As for `C/C=C/C[C@H](C)C[C@H](C)C(=O)C1=C(O)[C@H](Cc2ccc(O)cc2)NC1=O`, the MIC in the assay with Cryptococcus neoformans, in the assay on Staphylococcus aureus, with Candida albicans and with Escherichia coli was > 100 µM in each case.

As for `C/C=C/C[C@H](C)C[C@]1(C)Oc2c(-c3ccc(O)cc3)c[nH]c(=O)c2[C@H]1O`, the MIC in the assay on Staphylococcus aureus, in the assay on Candida albicans and with Escherichia coli was > 100 µM throughout.

As for `C/C=C/C[C@H](C)C[C@@]1(C)Oc2c(-c3ccc(O)cc3)c[nH]c(=O)c2[C@@H]1O`, the MIC in the assay on Staphylococcus aureus, in the assay on Candida albicans and in the assay on Escherichia coli was > 100 µM throughout.

Usually MIC stands for the least concentration at which growth counts as inhibited.
